Experimental data taken from patent US9428460B2, “N-[4-(quinolin-4-yloxy)cyclohexyl(methyl)](hetero)arylcarboxamides as androgen receptor antagonists, production and use thereof as medicinal products” (BAYER PHARMA AKTIENGESELLSCHAFT, priority 2012, dated 2016).

Columns and labels:
[1] = system: LAPC-4 cells; test: Proliferation assay with LAPC-4 cells; type: cell-based; conditions: Homo sapiens, LAPC4, 168 h; in the presence of 1×10^−9 M R1881, seven days, AlamarBlue; read-out: IC50 LAPC-4 cell proliferation
Description: LAPC-4 cells (Klein et al., Nat Med. 3(4): 402-8, 1997) were plated out at a density of 4000 cells per well of a 96-well cell culture plate in RMPI 1640 medium (F1275, Biochrom AG) that contained activated charcoal-treated calf serum (FCS Serum Gold, PAA Laboratories) at a concentration of 10% (v/v). On the next day the cells were treated with the test substances in concentrations from 1×10^−8 to 1×10^−10 M in the presence of 1×10^−9 M R1881. Cell proliferation was determined seven days later after incubation for 2 hours with AlamarBlue (DAL1100, Invitrogen) (Nakayama et al., J Immunol Methods, 204(2): 205-8, 1997). The fluorescence values obtained were normalized, wherein 100% corresponded to the effect of the unstimulated control (without R1881), and 0% corresponded to the effect of the stimulated control (R1881 plus DMSO instead of test substance). The IC50 value was determined by regression analysis based on a four-parameter equation (minimum, maximum, IC50, Hill coefficient; Y=Max+(Min−Max)/(1+(X/IC50)^Hill)).

[2] = system: LNCaP cells; test: Proliferation assay with LNCaP cells; type: cell-based; conditions: Homo sapiens, 168 h, in the presence of 1×10^−10 M R1881, seven days, AlamarBlue, read-out: IC50 LNCaP cell proliferation
Description: LNCaP cells (Horoszewicz et al., in “Models for Prostate Cancer” (ed. G. P. Murphy), Alan R. Liss, New York 1981, p. 115-132; Horoszewicz et al., Cancer Res. 43: 1809-1818, 1983) were plated out at a density of 2000 cells per well of a 96-well cell culture plate in RMPI 1640 medium (F1275, Biochrom AG), which contained activated charcoal-treated calf serum (FCS Serum Gold, PAA Laboratories) at a concentration of 5% (v/v). Three days later the cells were treated with the test substances in concentrations from 1×10^−8 to 1×10^−10 M in the presence of 1×10^−10 M R1881. Cell proliferation was determined seven days later after incubation for 2 hours with AlamarBlue (DAL1100, Invitrogen) (Nakayama et al., J Immunol Methods, 204(2): 205-8, 1997). The fluorescence values obtained were normalized, wherein 100% corresponded to the effect of the unstimulated control (without R1881), and 0% corresponded to the effect of the stimulated control (R1881 plus DMSO instead of test substance). The IC50 value was determined by regression analysis based on a four-parameter equation (minimum, maximum, IC50, Hill coefficient; Y=Max+(Min−Max)/(1+(X/IC50)^Hill)).

[3] = system: human uterine leiomyoma xenografts; test: Growth of human xenografts from leiomyoma tissue in immunodeficient mice; type: in vivo, mouse
Description: The growth-inhibiting action of inhibitors of the androgen receptor was tested in a xenograft animal model with subcutaneously transplanted tissue fragments from human leiomyomas.
Human uterine leiomyoma tissue was derived from surgery, in which, based on the diagnosis, either a hysterectomy or a myomectomy was carried out. The uterine leiomyomas (UL) were then prepared free either from the removed uterus or by myomectomy in situ; in the last-mentioned method, the myomas were removed whole or by morcellation from the abdominal cavity.
The prepared myomas were then immediately put in a suitable sterile buffer (Vitron V7 Buffer (U.S. Pat. No. 5,328,821) or Viaspan organ transplant buffer) at 4° C. for further transport. Then, on a sterile bench with constant moistening, the UL tissue was cut into small blocks with 2×2×2 mm or 2×4×4 mm edge lengths, and the pieces of tissue were stored in a cell culture dish in PBS at room temperature until transplantation (M Fritsch et al. 2010, ISGE abstract & presentation).
Immunodeficient mice (ICR SCID, CB17 SCID, ICR-Hrhr SCID or SCID beige mice) were ovariectomized at the age of 6-8 weeks (OVX). At the earliest one week after OVX, pellets releasing 17β-estradiol (E2, 0.05 mg/90 d, Innovative Research of America, catalogue number NE-121) and progesterone (P, 25 mg/60 d, Innovative Research of America, catalogue number SP-131) (Innovative Research of America, Sarasota, Fla./USA) were transplanted into the neck region of the animals. Alternatively, the animals can be given replacement therapy with other implants or methods that ensure continuous release of the hormones 17β-estradiol and progesterone. […]
UL tissue in situ was as a rule characterized by an excessive synthesis and accumulation of proteins of the extracellular matrix, and by increased cell proliferation. […] If specific mechanisms of action of the test substances were known or presumed, in addition the cell proliferation and/or the proportion of the extracellular matrix were determined by histological staining. […]

In the case of `N#Cc1cccc2c(O[C@H]3CC[C@H](NC(=O)c4cccc(F)c4)CC3)ccnc12` [Example 23, N-{trans-4-[(8-cyanoquinolin-4-yl)oxy]cyclohexyl}-3-fluorobenzamide], the IC50 [1] is reported as 86 nM, the IC50 [2] is reported as 28 nM and the “inhibition of the growth of uterine leiomyoma xenografts” value ([3]; 70 mg/kg/d, in 3 out of 4 independent experiments with tissue from different donors) is reported as “significant inhibition”. For the same molecule, the “average inhibition of the normalized xenograft growth over the transplantation weight on day 0” value ([3]; dose of 25 mg/kg/d) was −24% and the “average inhibition of the normalized xenograft growth over the transplantation weight on day 0” value ([3]; dose of 70 mg/kg/d) was −59%.
